# Measured values reported in article PMC5218480 (PLoS ONE, 2017).
# Test system: MV-4-11 cells
# Assay: Gene expression microarray analysis (Affymetrix PrimeView) and GSEA
# Format: cell-based, human
# Set-up: RFU PODN (11730768_x_at) / Fold change /veh PODN (11730768_x_at) / RFU LINC00158 (11744669_a_at) / Fold change /veh LINC00158 (11744669_a_at) / RFU DUSP10 (11751237_a_at) / Fold change /veh DUSP10 (11751237_a_at) / RFU ID3 (11757404_x_at) / Fold change /veh ID3 (11757404_x_at) / RFU PLEKHG5 (11737974_s_at) / Fold change /veh PLEKHG5 (11737974_s_at) / RFU LRRC4B (11730491_at) / Fold change /veh LRRC4B (11730491_at) / RFU GIMAP4 (11747438_a_at) / Fold change /veh GIMAP4 (11747438_a_at) / RFU KRT8 (11758183_x_at) / Fold change /veh KRT8 (11758183_x_at) / RFU CNN1 (11734310_a_at) / Fold change /veh CNN1 (11734310_a_at) / RFU VPS37D (11726825_at) / Fold change /veh VPS37D (11726825_at) / RFU C10orf10 (11716522_x_at) / Fold change /veh C10orf10 (11716522_x_at) / RFU KIR2DL2 /// KIR2DL4 /// KIR2DL5A /// KIR2DL5B /// KIR2DS1 /// KIR2DS2 /// KIR2DS3 /// KIR2DS4 /// KIR3DL3 /// KIR3DL3 /// KIR3DS1 (11738374_at) / Fold change /veh KIR2DL2 /// KIR2DL4 /// KIR2DL5A /// KIR2DL5B /// KIR2DS1 /// KIR2DS2 /// KIR2DS3 /// KIR2DS4 /// KIR3DL3 /// KIR3DL3 /// KIR3DS1 (11738374_at) / RFU C1QL1 (11718748_at) / Fold change /veh C1QL1 (11718748_at) / RFU TMPRSS4 (11747572_a_at) / Fold change /veh TMPRSS4 (11747572_a_at) / RFU HAMP (11756126_x_at) / Fold change /veh HAMP (11756126_x_at) / RFU RNFT2 (11725882_a_at) / Fold change /veh RNFT2 (11725882_a_at) / RFU NR4A2 (11747474_a_at) / Fold change /veh NR4A2 (11747474_a_at) / RFU ABCC12 (11746883_a_at) / Fold change /veh ABCC12 (11746883_a_at) / RFU TMEM136 (11760407_x_at) / Fold change /veh TMEM136 (11760407_x_at) / RFU CLDN22 /// WWC2 (11732394_at) / Fold change /veh CLDN22 /// WWC2 (11732394_at) / RFU HLA-DPB1 (11760878_x_at) / Fold change /veh HLA-DPB1 (11760878_x_at) / RFU SPINT1 (11716480_a_at) / Fold change /veh SPINT1 (11716480_a_at) / RFU GAP43 (11754022_s_at) / Fold change /veh GAP43 (11754022_s_at) / RFU A4GNT (11735810_at) / Fold change /veh A4GNT (11735810_at) / RFU PRB3 (11715151_x_at) / Fold change /veh PRB3 (11715151_x_at) / RFU TUBB4B (11761932_at) / Fold change /veh TUBB4B (11761932_at) / RFU CAPN14 (11732068_a_at) / Fold change /veh CAPN14 (11732068_a_at) / RFU TMCC2 (11721928_a_at) / Fold change /veh TMCC2 (11721928_a_at) / RFU IRGQ (11745062_a_at) / Fold change /veh IRGQ (11745062_a_at) / RFU FAM174B (11720279_a_at) / Fold change /veh FAM174B (11720279_a_at) / RFU TMPRSS4 (11748680_a_at) / Fold change /veh TMPRSS4 (11748680_a_at) / RFU FAM212B (11763350_a_at) / Fold change /veh FAM212B (11763350_a_at) / RFU PLEKHG5 (11743358_a_at) / Fold change /veh PLEKHG5 (11743358_a_at) / RFU ZSCAN30 (11745921_a_at) / Fold change /veh ZSCAN30 (11745921_a_at) / RFU CMKLR1 (11741424_a_at) / Fold change /veh CMKLR1 (11741424_a_at) / RFU LOC101060620 /// MAPK8IP1 (11723275_at) / Fold change /veh LOC101060620 /// MAPK8IP1 (11723275_at) / RFU SPTSSB (11747773_x_at) / Fold change /veh SPTSSB (11747773_x_at) / RFU PRSS12 (11739890_at) / Fold change /veh PRSS12 (11739890_at) / RFU BIN1 (11741810_x_at) / Fold change /veh BIN1 (11741810_x_at) / RFU WNT11 (11732464_a_at) / Fold change /veh WNT11 (11732464_a_at) / RFU C10orf10 (11716521_a_at) / Fold change /veh C10orf10 (11716521_a_at) / RFU C5orf56 (11738089_at) / Fold change /veh C5orf56 (11738089_at) / RFU CYB561 (11721691_x_at) / Fold change /veh CYB561 (11721691_x_at) / RFU ANKRD19P (11752326_a_at) / Fold change /veh ANKRD19P (11752326_a_at) / RFU OR2T12 /// OR2T33 /// OR2T8 (11738714_s_at) / Fold change /veh OR2T12 /// OR2T33 /// OR2T8 (11738714_s_at) / RFU VCAN (11748164_a_at) / Fold change /veh VCAN (11748164_a_at) / RFU JSRP1 (11732532_at) / Fold change /veh JSRP1 (11732532_at) / RFU KRTAP10-11 (11738290_x_at) / Fold change /veh KRTAP10-11 (11738290_x_at) / RFU MYO3A (11730013_a_at) / Fold change /veh MYO3A (11730013_a_at) / RFU EBF3 (11725865_a_at) / Fold change /veh EBF3 (11725865_a_at) / RFU CAMK2N1 (11719241_x_at) / Fold change /veh CAMK2N1 (11719241_x_at) / RFU C5orf56 (11738088_a_at) / Fold change /veh C5orf56 (11738088_a_at) / RFU OLFML3 (11715873_a_at) / Fold change /veh OLFML3 (11715873_a_at) / RFU LOC100653217 /// NTM (11731650_a_at) / Fold change /veh LOC100653217 /// NTM (11731650_a_at) / RFU MAPK11 (11762145_a_at) / Fold change /veh MAPK11 (11762145_a_at) / RFU FIZ1 (11724087_x_at) / Fold change /veh FIZ1 (11724087_x_at) / RFU OASL (11726364_x_at) / Fold change /veh OASL (11726364_x_at) / RFU SOX15 (11748057_x_at) / Fold change /veh SOX15 (11748057_x_at) / RFU CD79A (11719716_a_at) / Fold change /veh CD79A (11719716_a_at) / RFU HIST1H1D (11736915_at) / Fold change /veh HIST1H1D (11736915_at) / RFU CASKIN2 (11723855_a_at) / Fold change /veh CASKIN2 (11723855_a_at) / RFU LOC730098 (11760151_x_at) / Fold change /veh LOC730098 (11760151_x_at) / RFU OR4N2 (11742367_at) / Fold change /veh OR4N2 (11742367_at) / RFU PRRT2 (11749266_a_at) / Fold change /veh PRRT2 (11749266_a_at) / RFU SNX32 (11753110_a_at) / Fold change /veh SNX32 (11753110_a_at) / RFU CDHR5 (11726645_a_at) / Fold change /veh CDHR5 (11726645_a_at) / RFU RCAN1 (11760418_a_at) / Fold change /veh RCAN1 (11760418_a_at) / RFU FAM167A (11723789_a_at) / Fold change /veh FAM167A (11723789_a_at) / RFU FAM26E (11764081_at) / Fold change /veh FAM26E (11764081_at) / RFU ISYNA1 (11749810_s_at) / Fold change /veh ISYNA1 (11749810_s_at) / RFU ACY1 (11761880_at) / Fold change /veh ACY1 (11761880_at) / RFU 11764098_at / Fold change /veh 11764098_at / RFU SAMD14 (11745864_x_at) / Fold change /veh SAMD14 (11745864_x_at) / RFU NPB (11741838_a_at) / Fold change /veh NPB (11741838_a_at) / RFU TMPRSS6 (11731388_a_at) / Fold change /veh TMPRSS6 (11731388_a_at) / RFU KRTAP10-2 (11738614_at) / Fold change /veh KRTAP10-2 (11738614_at) / RFU ARHGAP8 /// PRR5-ARHGAP8 (11727945_x_at) / Fold change /veh ARHGAP8 /// PRR5-ARHGAP8 (11727945_x_at) / RFU KRTAP5-7 /// NADSYN1 (11734609_at) / Fold change /veh KRTAP5-7 /// NADSYN1 (11734609_at) / RFU RASL12 (11751679_a_at) / Fold change /veh RASL12 (11751679_a_at) / RFU CDKN2B (11736163_a_at) / Fold change /veh CDKN2B (11736163_a_at) / RFU PRF1 (11729649_at) / Fold change /veh PRF1 (11729649_at) / RFU, ZNF638 /// ZNF638-IT1 / Fold change vs veh, ZNF638 /// ZNF638-IT1 / RFU, PANK3 / Fold change vs veh, PANK3 / RFU, SH3YL1 / Fold change vs veh, SH3YL1 / RFU, ZEB2 / Fold change vs veh, ZEB2 / RFU, NRIP1 / Fold change vs veh, NRIP1 / RFU, PTTG1IP / Fold change vs veh, PTTG1IP / RFU, CAPN2 / Fold change vs veh, CAPN2 / RFU, MED14 / Fold change vs veh, MED14 / RFU, SNORA58 / Fold change vs veh, SNORA58 / RFU, C1orf63 / Fold change vs veh, C1orf63 / RFU, LRRFIP1 / Fold change vs veh, LRRFIP1 / RFU, NDUFAF7 / Fold change vs veh, NDUFAF7 / RFU, SLC12A2 / Fold change vs veh, SLC12A2 / RFU, IBTK / Fold change vs veh, IBTK / RFU, ESF1 / Fold change vs veh, ESF1 / Fold change vs veh, TMEM50B / RFU, TAOK1 / Fold change vs veh, TAOK1 / RFU, ACBD3 / Fold change vs veh, ACBD3 / RFU, TMA16 / Fold change vs veh, TMA16 / RFU, RWDD3 / Fold change vs veh, RWDD3 / RFU, BCAT1 / Fold change vs veh, BCAT1 / RFU, EDEM3 / Fold change vs veh, EDEM3 / RFU, TMEM33 / Fold change vs veh, TMEM33 / RFU, WDR75 / Fold change vs veh, WDR75 / RFU, AHCTF1 / Fold change vs veh, AHCTF1 / RFU, TFRC / Fold change vs veh, TFRC / RFU, ZDHHC17 / Fold change vs veh, ZDHHC17 / RFU, NOM1 / Fold change vs veh, NOM1 / RFU, ARL8B / Fold change vs veh, ARL8B / RFU, ZBTB11 / Fold change vs veh, ZBTB11 / RFU, TAMM41 / Fold change vs veh, TAMM41 / RFU, KIAA1704 /// LOC100996395 / Fold change vs veh, KIAA1704 /// LOC100996395 / RFU, ING1 / Fold change vs veh, ING1 / RFU, TRMT61B / Fold change vs veh, TRMT61B / RFU, FUBP3 / Fold change vs veh, FUBP3 / RFU, TP53 / Fold change vs veh, TP53 / RFU, TNKS2 / Fold change vs veh, TNKS2 / RFU, ZFP14 / Fold change vs veh, ZFP14 / RFU, ACTR2 / Fold change vs veh, ACTR2 / RFU, PPP3R1 / Fold change vs veh, PPP3R1 / RFU, PIK3R1 / Fold change vs veh, PIK3R1 / RFU, HNRNPA1 / Fold change vs veh, HNRNPA1 / RFU, RNF170 / Fold change vs veh, RNF170 / RFU, ZNF28 / Fold change vs veh, ZNF28 / RFU, RNGTT / Fold change vs veh, RNGTT / RFU, OGT / Fold change vs veh, OGT / RFU, BRD1 / Fold change vs veh, BRD1 / RFU, MARS / Fold change vs veh, MARS / RFU, ZNF655 / Fold change vs veh, ZNF655 / RFU, FAHD1 / Fold change vs veh, FAHD1 / RFU, BDP1 / Fold change vs veh, BDP1 / RFU, LRRCC1 / Fold change vs veh, LRRCC1 / RFU, ARID1A / Fold change vs veh, ARID1A / RFU, ZNF146 / Fold change vs veh, ZNF146 / RFU, ZNF330 / Fold change vs veh, ZNF330 / RFU, GPN3 / Fold change vs veh, GPN3 / RFU, C9orf123 / Fold change vs veh, C9orf123 / RFU, N4BP2L2 / Fold change vs veh, N4BP2L2 / RFU, ARFIP1 / Fold change vs veh, ARFIP1 / RFU, FAM179B / Fold change vs veh, FAM179B / RFU, BCL10 / Fold change vs veh, BCL10 / RFU, UHRF1BP1L / Fold change vs veh, UHRF1BP1L / RFU, BET1 / Fold change vs veh, BET1 / RFU, CNOT2 / Fold change vs veh, CNOT2 / RFU, ZNF268 / Fold change vs veh, ZNF268 / Fold change vs veh, ZNF507 / RFU, DGCR2 / Fold change vs veh, DGCR2 / RFU, WDSUB1 / Fold change vs veh, WDSUB1 / Fold change vs veh, HSP90B1 /// MIR3652 / RFU, ADSS / Fold change vs veh, ADSS / RFU, GK / Fold change vs veh, GK / RFU, ZNF148 / Fold change vs veh, ZNF148 / RFU, TAF9 / Fold change vs veh, TAF9 / RFU, SLC1A5 / Fold change vs veh, SLC1A5 / RFU, SLMO2 / Fold change vs veh, SLMO2 / RFU, ABCC4 / Fold change vs veh, ABCC4 / RFU, LOC101060439 /// RAP1B / Fold change vs veh, LOC101060439 /// RAP1B / RFU, RFX7 / Fold change vs veh, RFX7 / RFU, GTPBP10 / Fold change vs veh, GTPBP10 / RFU, CNEP1R1 / Fold change vs veh, CNEP1R1 / RFU, BIVM-ERCC5 /// ERCC5 / Fold change vs veh, BIVM-ERCC5 /// ERCC5 / RFU, ILF3 / Fold change vs veh, ILF3 / RFU 11762660_at / Fold change /veh 11762660_at / RFU VCAN (11757783_s_at) / Fold change /veh VCAN (11757783_s_at) / RFU DDX43 (11728927_at) / Fold change /veh DDX43 (11728927_at) / RFU KRT8 (11758188_x_at) / Fold change /veh KRT8 (11758188_x_at) / RFU NKD1 (11759106_at) / Fold change /veh NKD1 (11759106_at) / RFU SRD5A1 (11742802_a_at) / Fold change /veh SRD5A1 (11742802_a_at) / RFU TPSAB1 /// TPSB2 (11721975_s_at) / Fold change /veh TPSAB1 /// TPSB2 (11721975_s_at) / RFU GSTM3 (11746129_a_at) / Fold change /veh GSTM3 (11746129_a_at) / RFU IL23R (11737362_x_at) / Fold change /veh IL23R (11737362_x_at) / RFU TMEM51 (11727254_a_at) / Fold change /veh TMEM51 (11727254_a_at) / RFU PIWIL2 (11732686_x_at) / Fold change /veh PIWIL2 (11732686_x_at) / RFU ORM1 (11744905_x_at) / Fold change /veh ORM1 (11744905_x_at) / RFU CCDC152 (11743942_at) / Fold change /veh CCDC152 (11743942_at) / RFU ECM1 (11717891_a_at) / Fold change /veh ECM1 (11717891_a_at) / RFU IL23R (11748794_a_at) / Fold change /veh IL23R (11748794_a_at) / RFU TNFAIP8L3 (11732012_x_at) / Fold change /veh TNFAIP8L3 (11732012_x_at) / RFU MBOAT4 (11741988_at) / Fold change /veh MBOAT4 (11741988_at) / RFU 11764193_at / Fold change /veh 11764193_at / RFU TMEM53 (11763286_at) / Fold change /veh TMEM53 (11763286_at) / RFU MAGEB2 (11727129_at) / Fold change /veh MAGEB2 (11727129_at) / RFU TMEM200A (11744735_a_at) / Fold change /veh TMEM200A (11744735_a_at) / RFU CCDC152 (11751479_a_at) / Fold change /veh CCDC152 (11751479_a_at) / RFU FAM211A (11726209_a_at) / Fold change /veh FAM211A (11726209_a_at) / RFU RGS16 (11746705_a_at) / Fold change /veh RGS16 (11746705_a_at) / RFU VCAN (11755009_s_at) / Fold change /veh VCAN (11755009_s_at) / RFU RHOB (11743442_s_at) / Fold change /veh RHOB (11743442_s_at) / RFU RGS16 (11720943_a_at) / Fold change /veh RGS16 (11720943_a_at) / RFU RGS16 (11720944_at) / Fold change /veh RGS16 (11720944_at) / RFU, VPS4B / Fold change vs veh, VPS4B / RFU, CREB1 / Fold change vs veh, CREB1 / RFU, DNAJC13 / Fold change vs veh, DNAJC13 / RFU, GNAQ / Fold change vs veh, GNAQ / RFU, CDK5R1 / Fold change vs veh, CDK5R1 / RFU, ZRANB3 / Fold change vs veh, ZRANB3 / RFU, CUL4A / Fold change vs veh, CUL4A / RFU, CCNY / Fold change vs veh, CCNY / RFU, UFL1 / Fold change vs veh, UFL1 / RFU, COG3 / Fold change vs veh, COG3 / RFU, DIAPH2 / Fold change vs veh, DIAPH2 / RFU, SKA2 / Fold change vs veh, SKA2 / RFU, AFF3 / Fold change vs veh, AFF3 / RFU, LMF1 / Fold change vs veh, LMF1 / RFU, IPO11 / Fold change vs veh, IPO11 / RFU, DFFB / Fold change vs veh, DFFB / RFU, FOXP1 / Fold change vs veh, FOXP1 / RFU, CARD8 / Fold change vs veh, CARD8 / RFU, STRN3 / Fold change vs veh, STRN3 / RFU, ADK / Fold change vs veh, ADK / RFU, RASSF2 / Fold change vs veh, RASSF2 / RFU, WIPF1 / Fold change vs veh, WIPF1 / RFU, LARP1B / Fold change vs veh, LARP1B / RFU, RASA1 / Fold change vs veh, RASA1 / RFU, RB1 / Fold change vs veh, RB1 / RFU, PPFIA1 / Fold change vs veh, PPFIA1 / RFU, MAT2A / Fold change vs veh, MAT2A / RFU, CCT5 / Fold change vs veh, CCT5 / RFU, WDR92 / Fold change vs veh, WDR92 / RFU, CUX1 / Fold change vs veh, CUX1 / RFU, TTC7A / Fold change vs veh, TTC7A / RFU, TMEM135 / Fold change vs veh, TMEM135 / RFU, DEPTOR / Fold change vs veh, DEPTOR / RFU, CPM / Fold change vs veh, CPM / RFU, DNAJB6 / Fold change vs veh, DNAJB6 / RFU, CACNA2D3 / Fold change vs veh, CACNA2D3 / RFU, DTX4 / Fold change vs veh, DTX4 / RFU, TFCP2 / Fold change vs veh, TFCP2 / RFU, GMCL1 /// GMCL1P1 / Fold change vs veh, GMCL1 /// GMCL1P1 / RFU, AEBP2 / Fold change vs veh, AEBP2 / RFU, SNHG1 /// SNORD22 /// SNORD25 /// SNORD26 /// SNORD27 /// SNORD28 /// SNORD29 /// SNORD31 / Fold change vs veh, SNHG1 /// SNORD22 /// SNORD25 /// SNORD26 /// SNORD27 /// SNORD28 /// SNORD29 /// SNORD31 / Fold change (Aza/veh), C12orf56 (ProbeSet 11735607_a_at) / Fold change (ACY-1035/veh), C12orf56 (ProbeSet 11735607_a_at) / Fold change (Aza/veh), FGFR1OP (ProbeSet 11751329_s_at) / Fold change (ACY-1035/veh), FGFR1OP (ProbeSet 11751329_s_at) / Fold change (Aza/veh), VPS36 (ProbeSet 11739960_a_at) / Fold change (ACY-1035/veh), VPS36 (ProbeSet 11739960_a_at) / RFU SYPL1 (11715823_x_at) / Fold change /veh SYPL1 (11715823_x_at) / RFU IGFBP7 (11715501_s_at) / Fold change /veh IGFBP7 (11715501_s_at) / RFU REEP3 (11722064_at) / Fold change /veh REEP3 (11722064_at) / RFU IGLL1 (11728026_x_at) / Fold change /veh IGLL1 (11728026_x_at): dose or concentration left out as unconfirmed
# Details: gene VPS36; ACY-1035 vs DMSO; LIST F
smiles,measurement,value
Nc1ccc(-c2cccs2)cc1NC(=O)c1ccc2c(c1)cc(C1CC1)n2CCN1CCOCC1 [ACY-1035],"Fold change (ACY-1035/veh), VPS36 (ProbeSet 11739960_a_at)",0.53
